Measurements reported in US4963553A, “4-[(substituted) alkylcarbonyl]-4,5-dihydro- and -4,5,6,7-tetrahydro-7-[(substituted)phenyl]pyrazolo[1,5-a]pyrimidines” (American Cyanamid Co., priority 1988, dated 1990).
Where a name gives a salt, the structure may show the parent alone.

Experiments:
[1] = system: Brain-Specific Receptors of Rats (3H-benzodiazepine binding); assay: Inhibition of the binding of 3H-benzodiazepine to brain-specific receptors of rats; set-up: species or system rat (Wistar strain, whole cortex); conditions: rat cortex P2 fraction, 3H-diazepam 1.5 nM or 3H-flunitrazepam 1.0 nM
Excerpt: Another test utilized for the determination of anxiolytic activity is the measurement of the ability of a test compound to inhibit the binding of tritiated benzodiazepines to brain-specific receptors of mammals. A modification of the method described by R. F. Squires, et al., Nature, 266 (21), 732 (Apr., 1977) and H. Mohler, et al., Science, 198, 849 (1977) was employed. […] The test compounds were solubilized in dimethylformamide, acetic acid, ethanol or hydrochloric acid. […] (1) resuspended in twice the original volume in hypotonic 50 mM Tris.HCl (pH 7.4), or (2) resuspended in one-half the original volume in hypotonic 10 mM Tris.HCl (pH 7.4) and frozen (-20° C.) until time. of use. Frozen P2 preparations were thawed and resuspended in four times the original homogenizing volume at time of assay. […] Incubation for 30 minutes proceeded in ice and was terminated by filtration, under vacuum, through glass fiber filters. The filters were washed twice with 5 ml of ice-cold 50 mM Tris.HCl (pH 7.4) and placed in scintillation vials. After drying at 50°-60° C. for 30 minutes, 10 ml of diluent was added and the radioactivity determined in a scintillation counter. Inhibition of binding was calculated by the difference between total binding and binding in the presence of test compound, divided by the total binding, X 100.

[2] = system: Spontaneously Hypertensive Rats; assay: Hypotensive activity: mean arterial blood pressure in spontaneously hypertensive rats; format: in vivo, rat (Okamoto strain, male); conditions: SHR, gavage, 100 mg/kg or less, two doses 24 h apart, measured at 28 hours; average MABP of rats used 160±1.5 mm; 100 mg/kg
Description: The novel compounds of the invention are active hypotensive agents at nontoxic doses when administered to mammals. These compounds were tested for hypotensive activity by the method of P. S. Chan and D. W. Poorvin, Clinical and Experimental Hypertension, (6), 817-830 (1979). Male, 16 week old, spontaneously hypertensive rats of the Okamoto strain (Taconic Farms, Germantown, N.Y.) having an average means arterial blood pressure of 160±1.5 mm of mercury are used in the test. A rat is dosed by gavage with a test compound, suspended in 2% pre-boiled starch at a concentration of 50 mg/ml, at a dose of 100 mg/kg of body weight or less, with 0.9% sodium chloride loading at a dose of 25 ml/kg of body weight. A second identical dose of the test compound, without sodium chloride loading is given 24 hours later. At 28 hours after the initial dose the mean arterial blood pressure is measured by the method of Chan and Poorvin vide supra.

[3] = system: mice (anoxic induced amnesia); assay: Passive Avoidance Anoxic Induced Amnesia Test; format: in vivo, mouse (Swiss-Webster, middle-aged); conditions: intraperitoneal, vs saline control
Excerpt: A useful in vivo test associated with decreased neural function in mammals is the Passive Avoidance Anoxic Induced Amnesia Test. This test is used to determine the attenuation of anoxic induced amnesia in mice treated with drug, as compared to saline treated control animals with no drug. A shock-motivated, single trial, step-through passive avoidance procedure is used. Groups of 25 Swiss-Webster, middle-aged mice (9 months of age) are placed singly in the front chamber of a 2-chamber box and are allowed to voluntarily cross into the rear chamber. As soon as the mouse enters the rear chamber, a door automatically traps the animal and a mild electric shock (0.4 mA for 4 seconds) is delivered to its feet. Following the foot shock, the mice are initially placed in an anoxic environment (0% oxygen) for 12 seconds, which quickly induces unconsciousness. […] All testing is performed 24 hours later, and in all cases the mice appear fully recovered from the previous anoxic/hypoxic treatment. […] Control animals are injected intraperitoneally only with saline at 0.01 ml/g of body weight. The latent period prior to entering the rear chamber is recorded for both training and testing sessions. The greater the memory of being shocked, the greater the reluctance to enter into the rear chamber and the higher will be the latent period prior to re-entry. […]

[4] = system: mice (tetrabenazine-induced depression); assay: Tetrabenazine-induced depression (antidepressant); format: in vivo, mouse; set-up: key: Active: A compound is considered active if 3 or more of 10 mice are protected against the tetrabenazine-induced effects; conditions: 25 mg/kg, oral, 10 mice
Description: The compounds of the invention are useful as antidepressant agents in warm-blooded animals as verified in the following tests. First, the antidepressant properties of these compounds were tested by measuring their ability to counteract depression induced in animals by the administration of tetrabenazine methanesulfonate. Each test compound was administered orally to 10 mice at a dose of 25 mg/kg of body weight. Thirty minutes later, tetrabenazine methane sulfonate was administered intraperitoneally to each mouse at a dose of 39 mg/kg of body weight, which dose is known to depress markedly the exploratory behavior of normal mice. Thirty minutes later the mice were tested for their exploratory behavior as described by E. Greenblatt and A. C. Osterberg, Toxicology and Applied Pharmacology, 7. 566-578 (1965). A compound is considered active if 3 or more of 10 mice are protected against the tetrabenazine-induced effects.

[5] = system: mice (hypoxic environment); assay: Hypoxic survival test; format: in vivo, mouse (Royal Hart); conditions: intraperitoneal, 10% oxygen, 5 minutes
Method in brief: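 Groups of 20 Royal Hart mice (6 weeks old) dosed i.p. with compound in saline at 1–200 mg/kg, 30 minutes before exposure to 10% oxygen/90% carbon dioxide; survival scored after 5 minutes. Saline and physostigmine (0.125 mg/kg i.p.) groups run in parallel.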

rats = assay: Non-conditioned passive avoidance conflict procedure in rats (anxiolytic); format: in vivo, rat (Wistar strain, male); conditions: 25 mg/kg, oral, 60 minutes
Description: A test used to assess antianxiety effects is the non-conditioned passive avoidance procedure described by J. R. Vogel, B. Beer and D. E. Clody, "A Simple and Reliable Conflict Procedure for Testing Antianxiety Agents", Psychopharmacologia, 21, 1-7 (1971). A conflict situation is induced in rats by a modification of this method.
Groups of 8 naive, Wistar strain male rats (Royalhart Farms, New Hampton, N.J.), weighing 200-240 g each, were deprived of water for 48 hours. The test compounds were administered in single or graded, oral doses, suspended in 2% starch with 5% polyethylene glycol in distilled water and one drop of polysorbate 80. Control animals received the vehicle alone. At 60 minutes each rat was placed in an individual clear plastic chamber. Tap water was available ad libitum from a nipple located in a black box off the main chamber. A 0.7 milliampere AC shocking current was established between the stainless steel grid floor and the tap. After 20 licks of non-shocked drinking, a 2 second shocking current was administered to the rat. This ratio of 20 licks of non-shocked drinking followed by a 2 second shock was continued for a total of 3 minutes. The number of shocks taken by each rat during the 3 minute interval was recorded and compared to a control group. […]

## N#Cc1cnn2c1N(C(=O)CN1CCN(Cc3ccccc3)CC1)CC=C2c1cccc(C(F)(F)F)c1 [Example 17, 4,5-Dihydro-4-[[4-(phenylmethyl)-1-piperazinyl]acetyl]-7-[3-(trifluoromethyl)phenyl]pyrazolo[1,5-a]pyrimidine-3-carbonitrile]
[1]
  % Inhibition (3H-benzodiazepine binding): 17%
[2]
  MABP/mmHg (mean arterial blood pressure): 120 mmHg
[3]; 100 mg/kg
  % Improvement: 65%
[3]; 200 mg/kg
  % Improvement: 93%
[4]
  Result (protection against tetrabenazine-induced depression): Active
[5]; 100 mg/kg
  % Survivors: 48%
[5]; Mus musculus, ip, 5 min, 10 mg/kg, read-out: % Survivors
  responders at 10 mg/kg: 40%

## N#Cc1cnn2c1N(C(=O)CN1CCN(CCC3CCCCC3)CC1)CC=C2c1cccc(C(F)(F)F)c1 [Example 41, 4-[[4-(2-Cyclohexylethyl)-1-piperazinyl]acetyl]-4,5-dihydro-7-[3-(trifluoromethyl)phenyl]pyrazolo[1,5-a]pyrimidine-3-carbonitrile]
rats
  Result (No. of shocks per 3 min.): 18.0 shocks per 3 min.

## CN1CCN(CC(=O)N2CC=C(c3cccc(C(F)(F)F)c3)n3ncc(C#N)c32)CC1 [Example 77, 4,5-Dihydro-4-[(4-methyl-1-piperazinyl)acetyl]-7-[3-(trifluoromethyl)phenyl]pyrazolo[1,5-a]-pyrimidine-3-carbonitrile. dihydrochloride]
rats
  Result (No. of shocks per 3 min.): 17.4 shocks per 3 min.
